Key:
[1] = Single ascending dose (SAD) study, plasma PK; type: in vivo, human; conditions: for AUC0-t / AUC0-∞ / Cmax / MRT0-∞ / λz: mean (%CV); for t1/2: mean ± SD; for Tmax: median (range)
Procedure: For the MAD and food-effect studies, the doses were chosen according to the PK and safety results of the SAD study. […] The tablets were administered from the lowest dosage. The next highest dose level was initiated based on PK characteristics and a 5-day safety observation of the previous dose by the investigators and sponsors. […] This study included two groups: one group under feeding conditions (a high-fat diet comprising 110 g of boiled eggs, 240 mL of milk, 20 g of bacon, 20 g of butter, 50 g of toast, 10 g of salad oil, and 115 g of chips consumed within 30 min before dosing) and one group under fasting conditions. […] Interventions for all cohorts, except the 200 mg cohort, were conducted at the First Hospital of Jilin University (Changchun, China). The randomization lists were created using the PLAN statistical procedure in SAS 9.4 software (SAS Institute, Cary, NC, USA). Throughout the study, unblinding was only used in the event of SAEs or other emergency situations; otherwise, blinding was maintained for investigators, participants, and sponsors until the study’s completion.
For the SAD, food-effect, and DDI studies, blood samples were collected before dose administration and at 15 min, 30 min, and 1, 1.5, 2, 3, 4, 6, 8, 12, 24, 36, 48, 72, and 96 h after dose administration. We used collection tubes containing the anticoagulant EDTA for PK assessments. In the MAD study, blood samples were obtained on day 1 at 0 h, 15 min, 30 min, and 1, 1.5, 2, 3, 4, 6, 8, and 12 h after dosing; on days 2–4; and on day 5 at 0 h, 15 min, 30 min, and 1, 1.5, 2, 3, 4, 6, 8, 12, 24, 36, 48, 72, and 96 h after dosing. The […] samples were subsequently centrifuged at 1,300 × g for 10 min at 2–8°C. For the food-effect component, urine samples were collected in tubes containing 0.01% Triton X-100 at the following intervals: 0, 0–6, 6–12, 12–24, 24–48, 48–72, 72–96, 96–120, 120–144, 144–168, and 168–192 h after administration. Fecal samples were collected from 0 h to 192 h after the first dose. All the samples were stored at −80°C.
The standard curve concentrations ranged from 5 to 5,000 ng/mL, 10 to 10,000 ng/mL, and 5 to 5,000 µg/g in the plasma, urine, and fecal samples, respectively. The lower limits of quantification were 5.00 ng/mL, 10.00 ng/mL, and 5.00 µg/g for the plasma, urine, and fecal samples, respectively.
The noncompartmental model (Phoenix WinNonlin ver. 8.2.2.227, Certara, Princeton, USA) was used to calculate the PK parameters: time to maximum observed plasma concentration (Tmax); maximum observed plasma concentration (Cmax); area under the concentration-time curve from the time of dosing to the last time point with measurable plasma concentrations of drug (AUC0-t); AUC from the time of dosing extrapolated to infinity (AUC0-∞); terminal elimination half-life of the drug in plasma (t1/2); clearance (CL/F); volume (Vz/F); terminal phase elimination rate constant (λz); and mean retention time (MRT). The power model was used to evaluate the relationship between PK parameters and the dose level, expressed as ln (PK parameter) = ln (α) + β * ln (dose), where ln (α) is the intercept of the transformed linear regression equation and β is the slope. Upon calculating the 90% CI of β, if the entire 90% CI of β falls within the judgment interval, the PK parameters can be deemed linearly related to the dosage.

[2] = 12-lead ECG QTcF assessment and C-QT model; type: in vivo, human
Procedure: To evaluate the cardiotoxicity of the drug, 12-lead ECG was conducted at several time points: 0 h, 1 h, 2 h, 4 h, 24 h, 48 h, 72 h, and 96 h after dosing in the SAD, food-effect, and DDI studies. In the MAD study, 12-lead ECG data were collected on day 1 (0 h, 1 h, 2 h, 4 h, and 8 h after dosing) and on day 5 (0 h, 1 h, 2 h, 4 h, 24 h, 48 h, 72 h, and 96 h after dosing), as well as before dosing and 2 h after dosing on days 2–4. Three consecutive ECGs were performed at each of these time points. The QT interval was corrected using the Fridericia formula [QTcF = QT / (RR^0.33), where RR = 60/heart rate]. Descriptive statistics were applied to the number of participants with abnormal changes in QTcF after dosing compared to baseline, including: (i) absolute value of QTcF >450 ms; (ii) absolute value of QTcF >500 ms; (iii) 30 ms < ΔQTcF ≤ 60 ms; (iv) ΔQTcF >60 ms (ΔQTcF = QTcF after dosing − baseline).

Question: Which AUC0-t ([1]; 200 mg single dose) does the source give for `O=C(NC1CCCC1)C(=O)[C@H](C[C@@H]1CCNC1=O)NC(=O)[C@@H]1[C@H]2CCC[C@H]2CN1C(=O)[C@@H](NC(=O)C(F)(F)F)C1CCCCC1` [RAY1216, leritrelvir] here?
Answer: Its AUC0-t is 5,510 (22.7) ng·h/mL.

Question: And the “AUC0-∞” value ([1]; 200 mg single dose)?
Answer: The value was 5,550 (22.7) ng·h/mL.

Question: And the Cmax ([1]; 200 mg single dose)?
Answer: Its Cmax is 1,270 (42) ng/mL.

Question: And the “MRT0-∞” value ([1]; 200 mg single dose)?
Answer: Its value is 5.01 (13.5) h.

Question: And the λz ([1]; 200 mg single dose)?
Answer: Its λz is 0.214 (6.2) h^−1.

Question: What about the t1/2 ([1]; 200 mg single dose) of the same compound?
Answer: Its t1/2 is 3.25 ± 0.202 h.

Question: And the Tmax ([1]; 200 mg single dose)?
Answer: Its Tmax is 1.5 (0.5, 2.0) h.

Question: What about the AUC0-t ([1]; 400 mg single dose) of the same compound?
Answer: Its AUC0-t is 11,700 (45.8) ng·h/mL.

Question: What about the “AUC0-∞” value ([1]; 400 mg single dose) of the same compound?
Answer: Its value is 11,700 (45.6) ng·h/mL.

Question: And the Cmax ([1]; 400 mg single dose)?
Answer: Its Cmax is 2,250 (53.8) ng/mL.

Question: And the “MRT0-∞” value ([1]; 400 mg single dose)?
Answer: The value was 6.05 (9.9) h.

Question: And the λz ([1]; 400 mg single dose)?
Answer: Its λz is 0.172 (36) h^−1.

Question: And the t1/2 ([1]; 400 mg single dose)?
Answer: The t1/2 was 4.83 ± 2.86 h.

Question: And the Tmax ([1]; 400 mg single dose)?
Answer: Its Tmax is 1.3 (1.0, 4.0) h.

Question: And the AUC0-t ([1]; 800 mg single dose)?
Answer: The AUC0-t was 16,200 (18.7) ng·h/mL.

Question: And the “AUC0-∞” value ([1]; 800 mg single dose)?
Answer: The value was 16,300 (18.8) ng·h/mL.

Question: And the Cmax ([1]; 800 mg single dose)?
Answer: The Cmax was 3,590 (20.2) ng/mL.

Question: What about the “MRT0-∞” value ([1]; 800 mg single dose) of the same compound?
Answer: The value was 6.75 (38.2) h.

Question: And the λz ([1]; 800 mg single dose)?
Answer: Its λz is 0.128 (73.6) h^−1.

Question: What about the t1/2 ([1]; 800 mg single dose) of the same compound?
Answer: The t1/2 was 10.3 ± 9.72 h.

Question: And the Tmax ([1]; 800 mg single dose)?
Answer: The Tmax was 1.5 (1.0, 3.0) h.

Question: What about the AUC0-t ([1]; 1,600 mg single dose) of the same compound?
Answer: The AUC0-t was 29,100 (24.1) ng·h/mL.

Question: What about the “AUC0-∞” value ([1]; 1,600 mg single dose) of the same compound?
Answer: The value was 29,100 (24.1) ng·h/mL.

Question: What about the Cmax ([1]; 1,600 mg single dose) of the same compound?
Answer: Its Cmax is 6,180 (20.1) ng/mL.

Question: And the “MRT0-∞” value ([1]; 1,600 mg single dose)?
Answer: Its value is 5.94 (13.4) h.

Question: What about the λz ([1]; 1,600 mg single dose) of the same compound?
Answer: Its λz is 0.139 (22.4) h^−1.

Question: What about the t1/2 ([1]; 1,600 mg single dose) of the same compound?
Answer: Its t1/2 is 5.22 ± 1.16 h.

Question: What about the Tmax ([1]; 1,600 mg single dose) of the same compound?
Answer: Its Tmax is 1.5 (1.0, 4.0) h.

Question: What about the “participants with absolute value of QTcF exceeding 450 ms” value ([2]; 700 mg combined with ritonavir BID group) of the same compound?
Answer: Its value is “one”.

Question: And the “mean ΔΔQTcF” value ([2]; 700 mg combined with ritonavir BID, at average Cmax 9280 ng/mL, C-QT model, 90% CI: −1.6526–7.0164)?
Answer: Its value is 2.6819 ms.

Question: And the “correlation between drug concentration and the QT interval” value ([2]; C-QT model analysis)?
Answer: Its value is “no significant correlation”.

Question: And the “participants exceeding a ΔQTcF of 60 ms” value ([2]; all cohorts)?
Answer: Its value is “no participants”.

Question: What about the “upper limit of the 90% CI for the average ΔΔQTcF” value ([2]; at the average Cmax concentration in each cohort, C-QT model predicted) of the same compound?
Answer: Its value is “less than 10 ms”.

Reference: paper PMC11881559 (Antimicrobial Agents and Chemotherapy, 2025)
